Experiment [1] addresses T1, Angiotensin Converting Enzyme (ACE) (Oryctolagus cuniculus, UniProt P12822).
T1 construct: Lyophilized powder (1 g) of rabbit lungs (product of Pel-Freez Biologicals Company) was extracted; tissue Pel-Freez Biologicals Company; host or cells: rabbit lungs, lyophilized powder; 40,000 g supernatant of a phosphate buffer extract
T1 sequence (P12822 34-1310): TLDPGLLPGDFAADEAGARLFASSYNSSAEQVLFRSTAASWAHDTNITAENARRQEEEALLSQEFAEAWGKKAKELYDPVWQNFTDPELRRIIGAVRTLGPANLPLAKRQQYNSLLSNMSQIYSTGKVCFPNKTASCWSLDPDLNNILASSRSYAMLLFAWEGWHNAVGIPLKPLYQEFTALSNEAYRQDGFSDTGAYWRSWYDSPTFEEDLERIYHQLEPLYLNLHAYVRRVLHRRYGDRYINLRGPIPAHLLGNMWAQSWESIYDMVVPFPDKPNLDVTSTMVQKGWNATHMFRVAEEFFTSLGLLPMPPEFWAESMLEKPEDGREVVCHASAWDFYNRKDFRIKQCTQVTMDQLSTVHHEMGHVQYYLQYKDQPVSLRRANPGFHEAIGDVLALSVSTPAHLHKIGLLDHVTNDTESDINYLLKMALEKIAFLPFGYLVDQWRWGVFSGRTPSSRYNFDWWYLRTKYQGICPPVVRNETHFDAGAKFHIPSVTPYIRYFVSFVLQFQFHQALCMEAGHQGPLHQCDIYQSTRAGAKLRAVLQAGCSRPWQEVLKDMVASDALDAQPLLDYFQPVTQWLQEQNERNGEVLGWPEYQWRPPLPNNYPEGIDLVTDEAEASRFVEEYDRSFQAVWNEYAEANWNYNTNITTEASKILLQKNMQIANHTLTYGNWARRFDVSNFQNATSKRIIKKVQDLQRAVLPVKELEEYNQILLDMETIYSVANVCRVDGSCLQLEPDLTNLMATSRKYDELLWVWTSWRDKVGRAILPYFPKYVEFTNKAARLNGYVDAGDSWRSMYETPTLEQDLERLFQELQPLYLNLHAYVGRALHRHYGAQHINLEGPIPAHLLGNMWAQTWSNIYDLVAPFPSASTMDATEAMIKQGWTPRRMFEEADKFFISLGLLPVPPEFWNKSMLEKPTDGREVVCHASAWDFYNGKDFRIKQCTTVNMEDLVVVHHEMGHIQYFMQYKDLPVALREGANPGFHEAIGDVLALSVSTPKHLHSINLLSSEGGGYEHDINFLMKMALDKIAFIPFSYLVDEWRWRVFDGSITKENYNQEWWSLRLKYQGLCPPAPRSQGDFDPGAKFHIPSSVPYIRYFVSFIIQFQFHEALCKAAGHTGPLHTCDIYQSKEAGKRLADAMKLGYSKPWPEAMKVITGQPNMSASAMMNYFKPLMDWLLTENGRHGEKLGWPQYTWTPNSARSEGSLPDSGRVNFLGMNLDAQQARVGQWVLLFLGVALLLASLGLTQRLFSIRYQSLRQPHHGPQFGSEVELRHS
Kind of experiment: ACE inhibitory activity (Method 1, rabbit lung enzyme, hippurylglycylglycine). It counts as biochemical. Particulars: pH 8.3, 37° C., 30 minutes, hydrochlorides, read-out: ACE inhibitory activity concentration (IC50). The protocol:
(§1) The ACE inhibitory activities of the certain compounds (I) of this invention were determined by measuring their ACE activities in accordance with the method reported by Neels et al. [Clinical Chemistry, 29, 1399 (1983)].
(§2) Lyophilized powder (1 g) of rabbit lungs (product of Pel-Freez Biologicals Company) was extracted with 10 ml of a 50 mM buffer of potassium phosphate (pH 8.3) and a centrifugation supernatant (40,000 g×40 minutes) was used as an enzyme solution. Each test compound was dissolved at a concentration of 1 mg/ml in water, methanol or dimethyl sulfoxide depending on its solubility, followed by dilution with water to provide test solutions.
(§3) Added to 10 μl of each of the test solutions of various concentrations was 100 μl of a mixed reactant (pH 8.3) containing 50 mM of N-2-hydroxyethylpiperazine-N'-2-ethanesulfonic acid (HEPES), 300 mM of NaCl, 400 mM of Na2 SO4 and 30 mM of hippurylglycylglycine, followed by an addition of 10 μl of the enzyme solution to conduct a reaction at 37° C. for 30 minutes. To the reaction mixture, 100 μl of a sodium tungstate solution (100 g/l) and 100 μl of 0.33M sulfuric acid were added to terminate the reaction, followed by a further addition of 1 ml of water. The resultant mixture was centrifuged to collect 750 μl of a supernatant, to which 1 ml of a 100 mM borate buffer (pH 9.6) was added. Added further was 50 μl of a 60 mM solution of sodium 2,4,6-tri-nitrobenzenesulfonate. After warming the mixture at 37° C. for 15 minutes, its absorbance was measured at 420 nm. The inhibition rates at the various concentrations were calculated and IC50 was then determined by a method known per se in the art.

Experiment [2] concerns the target T1, Angiotensin Converting Enzyme (ACE). Kind of experiment: ACE inhibitory activity after incubation in rat plasma (Method 2). The class given is biochemical, rabbit. Particulars: pre-incubated in rat plasma at 37° C. for 1 hour, dihydrochlorides, read-out: ACE inhibitory activity concentration (IC50). The protocol:
as §1, §2, §3
Mixed to 1800 μl of rat plasma was 200 μl of each test solution, followed by incubation at 37° C. for 1 hour. The resulting mixture was then diluted with a 0.1M Tris-HCl buffer (pH 8.3). The procedure of Method 1 was thereafter followed to measure the ACE inhibitory activity.

`C[C@H](N[C@H]1CC(c2ccccc2)OC1=O)C(=O)N1CCC[C@H]1C(=O)O` (stereo partly drawn) [Comparative compound, reference compound]: the IC50 in experiment [1] was 14 nM. As to `CCCCCC1CC(N[C@@H](C)C(=O)N2CCC[C@H]2C(=O)O)C(=O)O1` (single isomer, unassigned) [Compound 19, N-(2-oxo-5-pentyl-3-tetrahydrofuranyl)-L-alanyl-L-proline], the IC50 in experiment [1] worked out at 7.3 nM. With `CCCCCC1CC(N[C@@H](CCCCN)C(=O)N2CCC[C@H]2C(=O)O)C(=O)O1` (single isomer, unassigned) [Compound 38, N^α -(2-oxo-5-pentyl-3-tetrahydrofuranyl)-L-lysyl-L-proline], the IC50 in experiment [2] turned out to be 4 nM. On to `CCCCCCCCCCC1CC(N[C@@H](C)C(=O)N2CCC[C@H]2C(=O)O)C(=O)O1` (single isomer, unassigned) [Compound 22, N-(2-oxo-5-decanyl-3-tetrahydrofuranyl)-L-alanyl-L-proline], for which, in experiment [1], the IC50 stood at 3 nM. On to `CCCCCCC1CC(N[C@@H](C)C(=O)N2CCC[C@H]2C(=O)O)C(=O)O1` (single isomer, unassigned) [Compound 14, N-(2-oxo-5-hexyl-3-tetrahydrofuranyl)-L-alanyl-L-proline], for which the IC50 in experiment [1] amounted to 7 nM. Turning to `CCCCC1CC(N[C@@H](CCCCN)C(=O)N2CCC[C@H]2C(=O)O)C(=O)O1` (single isomer, unassigned) [Compound 37, N^α -(2-oxo-5-butyl-3-tetrahydrofuranyl)-L-lysyl-L-proline], the IC50 in experiment [2] worked out at 5.7 nM.

Take `CCCCCCC1CC(N[C@@H](CCCCN)C(=O)N2CCC[C@H]2C(=O)O)C(=O)O1` (single isomer, unassigned) [Compound 35, N^α -(2-oxo-5-hexyl-3-tetrahydrofuranyl)-L-lysyl-L-proline]: the IC50 in experiment [2] amounted to 4.7 nM. Turning to `CCCCCCCCC1CC(N[C@@H](C)C(=O)N2CCC[C@H]2C(=O)O)C(=O)O1` (single isomer, unassigned) [Compound 21, N-(2-oxo-5-octyl-3-tetrahydrofuranyl)-L-alanyl-L-proline], in experiment [1], the IC50 stood at 2.9 nM. With `CCCCCCCC1CC(N[C@@H](C)C(=O)N2CCC[C@H]2C(=O)O)C(=O)O1` (single isomer, unassigned) [Compound 20, N-(2-oxo-5-heptyl-3-tetrahydrofuranyl)-L-alanyl-L-proline], the IC50 in experiment [1] worked out at 5.8 nM.

For the origin of these results see patent US4876359A, “Novel gamma-butyrolactone derivatives” (SS Pharmaceutical Co., Ltd., priority 1986, dated 1989).
